The values that follow come from patent publication US20220169654A1, “New Organic Compounds” (Servier Pharmaceuticals LLC, priority 2020, published 2022).

The target of experiment [1] is T1, MAT2A homodimer (Homo sapiens, UniProt P31153).
T1 construct: inferred from Ni sepharose purification with imidazole elution; made in house; host or cells: Sf9 insect cells, baculovirus (Bac to Bac, pFASTBAC1)
The experiment in a line: MAT2A inhibition (biochemical, liberated phosphate, PiColorLock Gold). The settings on record: recombinant MAT2A homodimer; IC50 bin with Max Inh.; read-out: Enzyme Inhibition Bin. The procedure, abridged: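 Baculovirus/Sf9-expressed, Ni-purified MAT2A (4 μg/mL) preincubated with compound 60 min at 25 °C in Tris pH 8.0/KCl/MgCl2 buffer. Reaction started with 500 μM ATP and 400 μM L-methionine (substrate-mix concentrations), run 60 min at 25 °C. Phosphate measured colorimetrically against a phosphate standard curve to give IC50.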

The test system of experiment [2] is SAM in HCT116 human colon carcinoma cell line with MTAP gene deleted (MTAP −/−). The experiment in a line: Cellular assay of target engagement (SAM), LC-MS/MS, 72 hrs. The settings on record: HCT-116, IC50 bin with Max Inh., read-out: Cell 72 h SAM Inhibition (MTAP −/−). Type of experiment: cell-based. The method, boiled down:
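MTAP-deleted HCT116 cells plated 24 h, then given 10-point 3-fold dilutions for 72 hrs at 37° C. Intracellular SAM extracted in cold 80% methanol with 1M acetic acid and d3-SAM standard, quantified by LC-MS/MS (MRM m/z 399.2→250.1); IC50 derived.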

Experiment [3] deals with HCT116 MTAP−/−. The experiment in a line: Inhibition of cellular proliferation, 4 days, Cell Titer Glo, HCT116 MTAP−/−. Type of experiment: cell-based. The settings on record: Homo sapiens, HCT-116, 96 h, IC50 bin with Max Inh., read-out: 4 Day Relative Growth Inhibition (MTAP −/−). The method, boiled down:
(§1)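 Isogenic HCT116 pair differing only in MTAP status, plated 24 h before treatment with 10-point 3-fold dilutions; 4 days at 37° C./5% CO2. Cell Titer Glo luminescence, blank-subtracted and normalised to 0.2% DMSO control, gives percentage proliferation vs log molar concentration for IC50.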
On the technique in general: In ATP-based viability assays light output follows the ATP content of the culture.

Experiment [4] deals with HCT116 MTAP+/+. The experiment in a line: Inhibition of cellular proliferation, 4 days, Cell Titer Glo, HCT116 MTAP+/+. Type of experiment: cell-based. The settings on record: Homo sapiens, HCT-116, 96 h, IC50 bin with Max Inh., read-out: 4 Day Relative Growth Inhibition (MTAP +/+). The procedure, abridged:
as §1

T1 sequence (P31153 whole entry): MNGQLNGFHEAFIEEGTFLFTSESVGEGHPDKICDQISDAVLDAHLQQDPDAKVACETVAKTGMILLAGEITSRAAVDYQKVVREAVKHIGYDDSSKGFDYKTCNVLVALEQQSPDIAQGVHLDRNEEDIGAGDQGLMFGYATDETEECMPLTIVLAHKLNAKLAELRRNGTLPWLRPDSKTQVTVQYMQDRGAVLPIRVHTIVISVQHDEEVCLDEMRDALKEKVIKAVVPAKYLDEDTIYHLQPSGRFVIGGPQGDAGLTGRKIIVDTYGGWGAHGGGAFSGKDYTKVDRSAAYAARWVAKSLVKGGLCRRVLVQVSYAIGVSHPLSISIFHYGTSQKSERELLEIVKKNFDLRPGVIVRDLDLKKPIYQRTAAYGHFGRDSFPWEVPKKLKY

Consider `Cn1cc2cc(-n3nc4ccn(CC5CC5)c4c(-c4ccc(C(N)=O)nc4)c3=O)ccc2n1` [Example 155, 5-(5-(cyclopropylmethyl)-2-(2-methyl-2H-indazol-5-yl)-3-oxo-3,5-dihydro-2H-pyrrolo[3,2-c]pyridazin-4-yl)picolinamide], for which the IC50 in experiment [1] is < 100 nM; in experiment [2], 100 to 1000 nM; in experiment [3] it was 100 to 1000 nM; in experiment [4], > 1000 nM.
As to `Cc1cc2nn(-c3ccc4nn(C)cc4c3)c(=O)c(-c3ccc(C4CC4)nc3)c2n1CC1CC1` [Example 263, 5-(cyclopropylmethyl)-4-(6-cyclopropylpyridin-3-yl)-6-methyl-2-(2-methyl-2H-indazol-5-yl)-2,5-dihydro-3H-pyrrolo[3,2-c]pyridazin-3-one], the IC50 is < 1000 nM in experiment [1], < 100 nM in experiment [2], > 1000 nM in experiment [3] and > 1000 nM in experiment [4].
Turning to `COc1ccc(-c2c(=O)n(-c3ccc4nc(C)n(C)c4c3)nc3ncn(CC4CC4)c23)cc1` [Example 195, 5-(cyclopropylmethyl)-2-(1,2-dimethyl-1H-benzo[d]imidazol-6-yl)-4-(4-methoxyphenyl)-2,5-dihydro-3H-imidazo[4,5-c]pyridazin-3-one], the IC50 in experiment [1] is < 100 nM; in experiment [2] it was < 100 nM; in experiment [3], < 100 nM; in experiment [4], > 1000 nM.
Turning to `Cn1cc2cc(-n3nc4ncn(CC5CC5)c4c(-c4ccc(C5CC5)cc4)c3=O)ccc2n1` [Example 192, 5-(cyclopropylmethyl)-4-(4-cyclopropylphenyl)-2-(2-methyl-2H-indazol-5-yl)-2,5-dihydro-3H-imidazo[4,5-c]pyridazin-3-one], the IC50 in experiment [1] was < 100 nM; in experiment [2], < 100 nM; in experiment [3] it was < 100 nM; in experiment [4], 100 to 1000 nM.
As to `Cn1cc2cc(-n3nc4[nH]c(=O)n(CC5CC5)c4c(-c4ccc(OC(F)F)cc4)c3=O)ccc2n1` [Example 197, 5-(cyclopropylmethyl)-4-(4-(difluoromethoxy)phenyl)-2-(2-methyl-2H-indazol-5-yl)-2,7-dihydro-3H-imidazo[4,5-c]pyridazine-3,6(5H)-dione], the IC50 in experiment [1] is < 100 nM; in experiment [2], < 100 nM; in experiment [3] it was 100 to 1000 nM; in experiment [4] it was 100 to 1000 nM.
As to `COc1ccc(-n2nc3ccn(CC4CC4)c3c(-c3ccc(OC(F)F)cc3)c2=O)cc1` [Example 229, 5-(cyclopropylmethyl)-4-(4-(difluoromethoxy)phenyl)-2-(4-methoxyphenyl)-2,5-dihydro-3H-pyrrolo[3,2-c]pyridazin-3-one], the IC50 in experiment [1] is < 100 nM; in experiment [2], < 100 nM; in experiment [3], < 100 nM; in experiment [4], 100 to 1000 nM.
Take `Cn1cc2cc(-n3nc4c(C#N)cn(CC5CC5)c4c(-c4ccc(C5(O)CC5)nc4)c3=O)ccc2n1` [Example 256, 5-(cyclopropylmethyl)-4-(6-(1-hydroxycyclopropyl)pyridin-3-yl)-2-(2-methyl-2H-indazol-5-yl)-3-oxo-3,5-dihydro-2H-pyrrolo[3,2-c]pyridazine-7-carbonitrile]: the IC50 is < 100 nM in experiment [1], 100 to 1000 nM in experiment [2], 100 to 1000 nM in experiment [3] and > 1000 nM in experiment [4].
For `Cn1cc2cc(-n3nc4ncn(CC5CC5)c4c(-c4ccc(Cl)cc4)c3=O)ccc2n1` [Example 188, 4-(4-chlorophenyl)-5-(cyclopropylmethyl)-2-(2-methyl-2H-indazol-5-yl)-2,5-dihydro-3H-imidazo[4,5-c]pyridazin-3-one], the IC50 in experiment [1] was < 100 nM; in experiment [2], < 100 nM; in experiment [3], < 100 nM; in experiment [4], 100 to 1000 nM.
On to `CCc1ccc(-c2c(=O)n(-c3ccc4nn(C)cc4c3)nc3ccn(CC4CC4)c23)cn1` [Example 135, 5-(cyclopropylmethyl)-4-(6-ethylpyridin-3-yl)-2-(2-methyl-2H-indazol-5-yl)-2,5-dihydro-3H-pyrrolo[3,2-c]pyridazin-3-one], for which the IC50 in experiment [1] was < 100 nM; in experiment [2] it was < 100 nM; in experiment [3], < 100 nM; in experiment [4] it was 100 to 1000 nM.
Regarding `Cn1cc2cc(-n3nc4c(CO)cn(CC5CC5)c4c(-c4ccc(C5CC5)nc4)c3=O)ccc2n1` [Example 239, 5-(cyclopropylmethyl)-4-(6-cyclopropylpyridin-3-yl)-7-(hydroxymethyl)-2-(2-methyl-2H-indazol-5-yl)-2,5-dihydro-3H-pyrrolo[3,2-c]pyridazin-3-one], the IC50 in experiment [1], in experiment [2], in experiment [3] and in experiment [4] was < 100 nM throughout.
On to `Cn1cc2cc(-n3nc4c(C(F)(F)F)cn(CC5CC5)c4c(-c4ccc(C5CC5)nc4)c3=O)ccc2n1` [Example 246, 5-(cyclopropylmethyl)-4-(6-cyclopropylpyridin-3-yl)-2-(2-methyl-2H-indazol-5-yl)-7-(trifluoromethyl)-2,5-dihydro-3H-pyrrolo[3,2-c]pyridazin-3-one], for which the IC50 in experiment [1] was < 100 nM; in experiment [2], < 100 nM; in experiment [3], < 100 nM; in experiment [4], 100 to 1000 nM.
As for `Nc1ccc(-n2nc3ccn(CC4CC4)c3c(-c3ccc(OC(F)F)cc3)c2=O)cc1` [Example 228, 2-(4-aminophenyl)-5-(cyclopropylmethyl)-4-(4-(difluoromethoxy)phenyl)-2,5-dihydro-3H-pyrrolo[3,2-c]pyridazin-3-one], the IC50 in experiment [1] was < 100 nM; in experiment [2] it was 100 to 1000 nM; in experiment [3], > 1000 nM; in experiment [4], > 1000 nM.
Turning to `COc1ccc(-c2c(=O)n(-c3ccc4nn(C)cc4c3)nc3ncn(CC4CC4)c23)cc1` [Example 193, 5-(cyclopropylmethyl)-4-(4-methoxyphenyl)-2-(2-methyl-2H-indazol-5-yl)-2,5-dihydro-3H-imidazo[4,5-c]pyridazin-3-one], the IC50 was < 100 nM in experiment [1], < 100 nM in experiment [2], < 100 nM in experiment [3] and > 1000 nM in experiment [4].
With `CN(C)S(=O)(=O)c1cn(CC2CC2)c2c(-c3ccc(C4CC4)nc3)c(=O)n(-c3ccc4nn(C)cc4c3)nc12` [Example 178, 5-(cyclopropylmethyl)-4-(6-cyclopropylpyridin-3-yl)-N,N-dimethyl-2-(2-methyl-2H-indazol-5-yl)-3-oxo-3,5-dihydro-2H-pyrrolo[3,2-c]pyridazine-7-sulfonamide], the IC50 in experiment [1] was 100 to 1000 nM; in experiment [2] it was > 1000 nM; in experiment [3], > 1000 nM; in experiment [4], > 1000 nM.
Regarding `Cn1cc2cc(-n3nc4ccn(CC5CC5)c4c(-c4ccc(C(F)(F)F)nc4)c3=O)ccc2n1` [Example 118, 5-(cyclopropylmethyl)-2-(2-methyl-2H-indazol-5-yl)-4-(6-(trifluoromethyl)pyridin-3-yl)-2,5-dihydro-3H-pyrrolo[3,2-c]pyridazin-3-one], the IC50 in experiment [1] is < 100 nM; in experiment [2], < 100 nM; in experiment [3], < 100 nM; in experiment [4] it was > 1000 nM.
Consider `Cn1cc2cc(-n3nc4c(Cl)cn(CC5CC5)c4c(-c4ccc(C5CC5)nc4)c3=O)ccc2n1` [Example 233, 7-chloro-5-(cyclopropylmethyl)-4-(6-cyclopropylpyridin-3-yl)-2-(2-methyl-2H-indazol-5-yl)-2,5-dihydro-3H-pyrrolo[3,2-c]pyridazin-3-one], for which the IC50 in experiment [1] is < 100 nM; in experiment [2] it was < 100 nM; in experiment [3], < 100 nM; in experiment [4] it was 100 to 1000 nM.
